# Test results taken from US5817669A, “Compounds, processes for the preparation thereof and anti-tumor agents” (Dainippon Pharmaceutical Co., Ltd., priority 1994, dated 1998).
# Structures can show the parent of a compound that is named as a salt. Where two headings read alike, the source gives them in different places.
# How the values were obtained:
# [1] = tested on: murine P388 lymphocytic leukemia cells; experiment: In vitro anti-tumor activity against murine P388 lymphocytic leukemia cells (MTT, 72 h); format: cell-based; conditions: Mus musculus, read-out: IC50 (50% proliferation inhibitory concentration)
# Protocol: Test compounds were tested for anti-tumor activity according to MTT [3-(4,5-dimethylthiazol-2-yl)-2,5-diphenyltetrazolium bromide] method, using murine P388 lymphocytic leukemia cells. […] The culture medium was centrifuged (4° C., 2,000 rpm for 20 minutes), and thus, the supernatants were removed by suction. Then, 0.1 ml of dimethyl sulfoxide was put in each well to dissolve the formed formazan, and, subsequently, another 0.1 ml of dimethyl sulfoxide was added. The absorbance (OD) of each of the obtained solutions was measured by use of Multiskan Bichromatic (main wavelength 570 nm, sub-wavelength 690 nm). […] IC50 :μg/ml) were calculated by the least squares method.
# Acute toxicity = conditions: mouse, in vivo, mice, 14th day
# Protocol: Solutions of test compounds in predetermined concentrations were administered (0.1 ml/10 g body weight) to female BALB/c CrSlc mice (5 to 10 animals per one group, 10 weeks old) respectively, and, thus, LD50 values were calculated from the mortalities of the mice on the 14th day after the administration.
# HMV2 human melanoma = experiment: In vitro anti-tumor activity against HMV-2 human melanoma (MTT); format: cell-based; conditions: HMV-2, 72 h
# Protocol: (§1) A culture medium containing 500 to 2,000 human cancer cells was put in an amount of 0.1 ml in each well of 96-well plate, and the cells were cultured for 20 hours under a condition of 37° C. and 5% carbon dioxide gas in air. After the culturing, a solution of test compounds of predetermined concentration was added, and then, the cells were cultured for further 72 hours. After the culturing, an MTT (5 mg/ml) solution was added in an amount of 0.01 ml in the respective wells, and the cells were cultured for further 4 hours. The supernatants of the culture medium were removed by suction, and then, 0.1 ml of dimethyl sulfoxide was put in respective well to dissolve the formed formazan, and, moreover, 0.1 ml of dimethyl sulfoxide was added.
# [2] = tested on: MKN45 human stomach cancer; experiment: In vitro anti-tumor activity against MKN45 human stomach cancer (MTT); format: cell-based
# Protocol: as §1
# [3] = tested on: colon 26 murine tumor cells; experiment: Tumor growth inhibition effect on colon 26 murine tumor cells implanted mice; format: in vivo, SLC: CDF1 mice; conditions: Mus musculus, read-out: Tumor growth inhibition rate IR (%); for inhibition in vivo at 1.56 mg/kg: 1.56 mg/kg once a day; for inhibition in vivo at 3.13 mg/kg: 3.13 mg/kg once a day
# Protocol: A 2% brei of colon 26 murine tumor cells was intracutaneously implanted each 0.1 ml in the abdominal part of SLC: CDF1 female mice (7 to 9 weeks old, 7 animals per one group). […] The obtained solutions were intraperitoneally (ip) administered each 0.2 ml once a day, from the day (1st day) following the implantation to the 9th day. On the 21st or 22nd day after the implantation, tumor weight was estimated from tumor diameters, and thus, the tumor growth inhibition rate (IR %) of the drug administered group in comparison with the control group was calculated according to the following equation. IR (%)=[1-{(MTW in the treated group)/(MTW in the control group)}]×10 0 MTW: mean tumor weight
# [4] = tested on: murine P388 lymphocytic leukemia cells; experiment: Increases in life span of mice implanted with murine P388 lymphocytic leukemia cells; format: in vivo, SLC: BDF1 mice; conditions: Mus musculus, P388, ip, 720 h
# Protocol: 1×10^6 murine P388 lymphocytic leukemia cells were intraperitoneally implanted in each of SLC: BDF1 mice (8 to 10 weeks old, female, 7 animals per one group). A test compound (drug) was either dissolved in 0.1 N--NaOH or suspended in 0.4% carboxymethylcellulose solution, and the resultant solution or suspension was diluted with distilled water or 0.4% carboxymethylcellulose solution so as to give predetermined concentrations for administration. The obtained solution was intraperitoneally (ip) administered twice, namely on the day following the implantation (1st day) and the 5th day, each 0.2 ml. The life and death of the mice were observed over a period of 30 days, and the median survival time (hereinafter referred to as MST) was determined for each group, and, thus, the increase in life span (ILS; %) was calculated according to the following equation:
# ILS (%)=[{(MST of the test group)/(MST of the control group)}-1]×100
# Drug effect was judged in the following manner, according to the criterion of U.S. National Cancer Institute (NCI):
# ILS=75% or higher: ++ (remarkably effective);
# 20 to 74%: + (effective);
# 19% or lower: - (ineffective)
# [5] = tested on: KB human nasopharynx cancer; experiment: In vitro anti-tumor activity against KB human nasopharynx cancer (MTT); format: cell-based; conditions: 72 h
# Protocol: as §1
# C33A human cervix cancer = experiment: In vitro anti-tumor activity against C-33A human cervix cancer (MTT); format: cell-based; conditions: 72 h
# Protocol: as §1
# [6] = tested on: WiDr human colorectal cancer; experiment: In vitro anti-tumor activity against WiDr human colorectal cancer (MTT); format: cell-based; conditions: 72 h
# Protocol: as §1
# A427 human lung cancer = experiment: In vitro anti-tumor activity against A-427 human lung cancer (MTT); format: cell-based; conditions: A-427, 72 h
# Protocol: as §1
# [7] = tested on: AZ521 human stomach cancer; experiment: In vitro anti-tumor activity against AZ-521 human stomach cancer (MTT); format: cell-based; conditions: AZ-521, 72 h
# Protocol: as §1
# Solubility = conditions: for solubility relative to that of Compound 1-1 and 3: relative to Compound 1-1 and 3 (Z is hydrogen)
# [8] = Intravenous administration (iv)
# [9] = MKN-45, MKN45, 72 h, MTT, read-out: IC50
# [10] = Colon 26, 504 h, ip, days 1-9, day 21 or 22
# [11] = NCI criterion, ip, 3.13 mg/kg, read-out: Evaluation
# [12] = NCI criterion, ip, 6.25 mg/kg, read-out: Evaluation
# [13] = NCI criterion, ip, 12.5 mg/kg, read-out: Evaluation
# [14] = NCI criterion, ip, 25 mg/kg, read-out: Evaluation
# [15] = ip, 3.13 mg/kg, days 1 and 5, in solution, read-out: ILS (%) (in solution)
# [16] = ip, 3.13 mg/kg, days 1 and 5, in suspension, read-out: ILS (%) (in suspension)
# [17] = ip, 6.25 mg/kg, days 1 and 5, in solution, read-out: ILS (%) (in solution)
# [18] = ip, 12.5 mg/kg, days 1 and 5, in solution, read-out: ILS (%) (in solution)
# [19] = ip, 12.5 mg/kg, days 1 and 5, in suspension, read-out: ILS (%) (in suspension)
# [20] = ip, 25 mg/kg, days 1 and 5, in solution, read-out: ILS (%) (in solution)
# [21] = Intraperitoneal administration (ip)
# [22] = read-out: ILS (%) (in solution)
# [23] = NCI criterion, ip, 1.56 mg/kg, read-out: Evaluation
# [24] = ip, 1.56 mg/kg, days 1 and 5, in solution, read-out: ILS (%) (in solution)
SMILES,"IC50 ([1]; murine P388 cells, 72 h, MTT) [µg/mL]",LD50 at 336 h (Acute toxicity; [8]) [mg/kg],"IC50 (HMV2 human melanoma; MTT, read-out: IC50) [µg/mL]","IC50 [2, 9] [µg/mL]","ILS at 3.13 mg/kg [4, 11] [%]","ILS at 6.25 mg/kg [4, 12] [%]","ILS at 12.5 mg/kg [4, 13] [%]","ILS at 3.13 mg/kg [4, 15] [%]","ILS at 3.13 mg/kg [4, 16] [%]","ILS at 6.25 mg/kg [4, 17] [%]","ILS at 12.5 mg/kg [4, 18] [%]","ILS at 12.5 mg/kg [4, 19] [%]","IC50 ([5]; KB, MTT, read-out: IC50) [µg/mL]","IC50 (C33A human cervix cancer; C-33A, MTT, read-out: IC50) [µg/mL]","IC50 ([6]; MTT, read-out: IC50) [µg/mL]","IC50 (A427 human lung cancer; MTT, read-out: IC50) [µg/mL]","IC50 ([7]; MTT, read-out: IC50) [µg/mL]",other results
CNC1(C)CCN(c2ccc3c(=O)c(C(=O)O)cn(-c4nccs4)c3n2)C1 (centres unmarked) [Compound 4],0.0175,> 100,0.187,0.199,20 to 74,> 75,> 75,63,63,88,125,125,0.172,0.144,0.392,0.194,0.1,"inhibition in vivo at 1.56 mg/kg [3, 10]: 64%; inhibition in vivo at 3.13 mg/kg [3, 10]: 89%; ILS at 25 mg/kg [4, 14]: > 75%; ILS at 25 mg/kg [4, 20]: 150%"
"COC1CN(c2ccc3c(=O)c(C(=O)O)cn(-c4nccs4)c3n2)CC1N(C)C(=O)[C@H](C)N (stereo partly drawn) [Compound 1-1-3, 7-[trans-3-(N-L-alanylmethylamino)-4-methoxy-1-pyrrolidinyl]-1,4-dihydro-4-oxo-1-(2-thiazolyl)-1,8-naphthyridine-3-carboxylic acid hydrochloride]",,,,,,,,,,,,,,,,,,"solubility (Solubility; 0.1 m phosphate buffer, pH 7.2, aqueous buffer): > 234 mg/mL; solubility relative to that of Compound 1-1 and 3 (Solubility): ≥ 10 times; solubility (Solubility; water): > 98.7 mg/mL"
"C[C@H](N)C(=O)NC1CCN(c2ccc3c(=O)c(C(=O)O)cn(-c4nccs4)c3n2)C1.Cl (stereo partly drawn) [Compound 3-1, 7-(3-L-alanylamino-1-pyrrolidinyl)-1,4-dihydro-4-oxo-1-(2-thiazolyl)-1,8-naphthyridine-3-carboxylic acid hydrochloride]",,,,,,,,,,,,,,,,,,solubility relative to that of Compound 1-1 and 3 (Solubility): ≥ 10 times; solubility (Solubility; water): 79.4 mg/mL
"COc1cc([C@@H]2c3cc4c(cc3[C@@H](O[C@@H]3O[C@@H]5CO[C@@H](C)O[C@H]5[C@H](O)[C@H]3O)[C@H]3COC(=O)[C@H]23)OCO4)cc(OC)c1O [Compound H, Etoposide, reference compound]",,123,,,,,,,,,,,,,,,,"IC50 ([1]; P388, 72 h): 0.00849 µg/mL; LD50 at 336 h (Acute toxicity; [21]): 71 mg/kg; IC50 (HMV2 human melanoma): 0.298 µg/mL; IC50 ([2]; MKN-45, 72 h): 0.49 µg/mL; inhibition in vivo at 12.5 mg/kg ([3]; Colon 26, ip, 504 h): 57%; ILS at 1.56 mg/kg ([4]; read-out: Evaluation): 20 to 74%; ILS at 3.13 mg/kg ([4]; read-out: Evaluation): > 75%; ILS at 6.25 mg/kg ([4]; read-out: Evaluation): > 75%; ILS at 12.5 mg/kg ([4]; read-out: Evaluation): > 75%; ILS at 25 mg/kg ([4]; read-out: Evaluation): > 75%; ILS at 1.56 mg/kg [4, 22]: 50%; ILS at 3.13 mg/kg [4, 22]: 75%; ILS at 6.25 mg/kg [4, 22]: 100%; ILS at 12.5 mg/kg [4, 22]: 150%; ILS at 25 mg/kg [4, 22]: > 275%; IC50 [5]: 0.201 µg/mL; IC50 (C33A human cervix cancer; C-33-A): 0.084 µg/mL; IC50 [6]: 1.63 µg/mL; IC50 (A427 human lung cancer): 0.095 µg/mL; IC50 [7]: 0.08 µg/mL"
CN[C@@H]1CN(c2ccc3c(=O)c(C(=O)O)cn(-c4nccs4)c3n2)C[C@H]1C (relative stereo) [Compound 5],0.0117,66.7,0.0944,0.0978,> 75,> 75,> 75,113,88,150,188,188,0.0805,0.106,0.218,0.0927,0.0433,"inhibition in vivo at 1.56 mg/kg [3, 10]: 78%; ILS at 1.56 mg/kg [4, 23]: 20 to 74%; ILS at 1.56 mg/kg [4, 24]: 50%"
CO[C@@H]1CN(c2ccc3c(=O)c(C(=O)O)cn(-c4nccs4)c3n2)C[C@H]1N (relative stereo) [Compound 2],0.0178,,0.382,0.579,> 75,> 75,> 75,88,63,100,125,138,0.309,0.314,1.88,0.169,0.331,"LD50 at 336 h (Acute toxicity; [21]): 135 mg/kg; inhibition in vivo at 12.5 mg/kg ([3]; Colon 26, 504 h, ip, 12.5 mg/kg once a day, days 1-9, day 21 or 22): 79%; ILS at 1.56 mg/kg [4, 23]: 20 to 74%; ILS at 25 mg/kg [4, 14]: > 75%; ILS at 50 mg/kg ([4]; NCI criterion, ip, read-out: Evaluation): > 75%; ILS at 1.56 mg/kg [4, 24]: 50%; ILS at 25 mg/kg [4, 20]: 213%; ILS at 50 mg/kg ([4]; ip, days 1 and 5, in solution, read-out: ILS (%) (in solution)): > 275%; ILS at 50 mg/kg ([4]; ip, days 1 and 5, in suspension, read-out: ILS (%) (in suspension)): 238%"
C[C@@H]1CN(c2ccc3c(=O)c(C(=O)O)cn(-c4nccs4)c3n2)C[C@@]1(C)N (relative stereo) [Compound 12],0.0195,,0.265,0.164,,,> 75,,,,,75,0.125,0.131,0.295,0.146,0.101,"inhibition in vivo at 3.13 mg/kg [3, 10]: 48%; inhibition in vivo at 6.25 mg/kg ([3]; Colon 26, 504 h, ip, 6.25 mg/kg once a day, days 1-9, day 21 or 22): 84%"
